Laboratory results: US10150740B2, “6,7-dihydropyrido[2,1-A]phthalazin-2-ones for the treatment and prophylaxis of hepatitis B virus infection” (priority 2015, dated 2018)
Counter-ions that a name gives are not always drawn.

System: HBsAg
Assay: cells
Details: Hepatitis B virus, HepG2.2.15, read-out: IC50 (HBsAg secretion)
Description: HepG2.2.15 cells (Acs et al. Proc Natl Acad Sci USA, 84, (1987), 4641-4), a constitutively HBV-expressing cell line were cultured in DMEM+Glutamax-I medium (Invitrogen, Carlsbad, Calif., USA), supplemented with 10% fetal bovine serum (Invitrogen) and G418 (Invitrogen) at a final concentration of 200 mg/L and maintained in 5% CO2 at 37° C.
HepG2.2.15 cells were seeded in duplicate into white, 96-well plates at 1.5×10^4 cells/well. The cells were treated with a three-fold serial dilution series of the compounds in DMSO. The final DMSO concentration in all wells was 1% and DMSO was used as no drug control.
The HBsAg chemiluminescence immunoassay (CLIA) kit (Autobio Diagnostics Co., Zhengzhou, China, Catalog number: CL0310-2) was used to measure the levels of secreted HBV antigens semi-quantitatively. For the detection 50 μL/well culture supernatant was used and HBsAg was quantified using HBsAg chemiluminescence immunoassay (CLIA) kit (Autobio Diagnostics Co., Zhengzhou, China, Catalog number: CL0310-2), 50 μL of the supernatant was transferred to the CLIA assay plate and 50 μL of enzyme conjugate reagent was added into each well. The plates were sealed and gently agitated for 1 hour at room temperature. The supernatant-enzyme-mixture was discarded and wells were washed 6 times with 300 μL of PBS. The residual liquid was removed by plating the CLIA plate right side down on absorbent tissue paper. 25 μL of substrates A and B were added to each well. Luminance was measured using a luminometer (Mithras LB 940 Multimode Microplate Reader) after 10 minutes incubation. Dose-response curves were generated and the IC50 value was extrapolated by using the E-WorkBook Suite (ID Business Solutions Ltd., Guildford, UK). The IC50 was defined as the compound concentration (or conditioned media log dilution) at which HBsAg secretion was reduced by 50% compared to the no drug control.

| SMILES | IC50 [nM] |
| --- | --- |
| COc1cc2c(cc1OCCCC#N)CN(CC(C)C)n1cc(C(=O)O)c(=O)cc1-2 [Example 13, 9-(3-Cyanopropoxy)-6-isobutyl-10-methoxy-2-oxo-7H-pyrido[2,1-a]phthalazine-3-carboxylic acid] | 110 |
| C=CCN1Cc2cc(OC)c(OC)cc2-c2cc(=O)c(C(=O)O)cn21 [Example 3, 6-Allyl-9,10-dimethoxy-2-oxo-7H-pyrido[2,1-a]phthalazine-3-carboxylic acid] | 740 |
| COc1cc2c(cc1OCCCS(C)(=O)=O)CN(CC(C)C)n1cc(C(=O)O)c(=O)cc1-2 [Example 9, 6-Isobutyl-10-methoxy-9-(3-methylsulfonylpropoxy)-2-oxo-7H-pyrido[2,1-a]phthalazine-3-carboxylic acid] | 624 |
| COCCCOc1cc2c(cc1OC)-c1cc(=O)c(C(=O)O)cn1N(CC(C)C)C2 [Example 6, 6-Isobutyl-10-methoxy-9-(3-methoxypropoxy)-2-oxo-7H-pyrido[2,1-a]phthalazine-3-carboxylic acid] | 53 |
| COc1cc2c(cc1OCC1CCOCC1)CN(CC(C)C)n1cc(C(=O)O)c(=O)cc1-2 [Example 8, 6-Isobutyl-10-methoxy-2-oxo-9-(tetrahydropyran-4-ylmethoxy)-7H-pyrido[2,1-a]phthalazine-3-carboxylic acid] | 44 |
| COc1cc2c(cc1OCCN1CCOCC1)CN(CC(C)C)n1cc(C(=O)O)c(=O)cc1-2 [Example 10, 6-Isobutyl-10-methoxy-9-(2-morpholinoethoxy)-2-oxo-7H-pyrido[2,1-a]phthalazine-3-carboxylic acid] | 225 |
| COc1cc2c(cc1OC)-c1cc(=O)c(C(=O)O)cn1N(C)C2 [Example 2, 9,10-Dimethoxy-6-methyl-2-oxo-7H-pyrido[2,1-a]phthalazine-3-carboxylic acid] | 2530 |
| COc1cc2c(cc1OCC(C)(C)CO)CN(CC(C)C)n1cc(C(=O)O)c(=O)cc1-2 [Example 11, 9-(3-Hydroxy-2,2-dimethyl-propoxy)-6-isobutyl-10-methoxy-2-oxo-7H-pyrido[2,1-a]phthalazine-3-carboxylic acid] | 39 |
| COc1cc2c(cc1OC)-c1cc(=O)c(C(=O)O)cn1NC2 [Example 1, 9,10-Dimethoxy-2-oxo-6,7-dihydropyrido[2,1-a]phthalazine-3-carboxylic acid] | 18700 |
| COc1cc2c(cc1OCCCCCNC(=O)OC(C)(C)C)CN(CC(C)C)n1cc(C(=O)O)c(=O)cc1-2 [Example 14, 9-[5-(Tert-butoxycarbonylamino)pentoxy]-6-isobutyl-10-methoxy-2-oxo-7H-pyrido[2,1-a]phthalazine-3-carboxylic acid] | 47 |
| COc1cc2c(cc1OC)-c1cc(=O)c(C(=O)O)cn1N(CC(C)C)C2 [Example 5, 6-Isobutyl-9,10-dimethoxy-2-oxo-7H-pyrido[2,1-a]phthalazine-3-carboxylic acid] | 248 |
| COc1cc2c(cc1OCCCCC(=O)O)CN(CC(C)C)n1cc(C(=O)O)c(=O)cc1-2 [Example 12, 9-(4-Carboxybutoxy)-6-isobutyl-10-methoxy-2-oxo-7H-pyrido[2,1-a]phthalazine-3-carboxylic acid] | 9430 |
| COc1cc2c(cc1OC)-c1cc(=O)c(C(=O)O)cn1N(C(C)C)C2 [Example 4, 6-Isopropyl-9,10-dimethoxy-2-oxo-7H-pyrido[2,1-a]phthalazine-3-carboxylic acid] | 26100 |
| COc1cc2c(cc1OCC(F)(F)F)CN(CC(C)C)n1cc(C(=O)O)c(=O)cc1-2 [Example 7, 6-Isobutyl-10-methoxy-2-oxo-9-(2,2,2-trifluoroethoxy)-7H-pyrido[2,1-a]phthalazine-3-carboxylic acid] | 172 |
| COc1cc2c(cc1OCCCCCN)CN(CC(C)C)n1cc(C(=O)O)c(=O)cc1-2 [Example 15, 9-(5-Aminopentoxy)-6-isobutyl-10-methoxy-2-oxo-7H-pyrido[2,1-a]phthalazine-3-carboxylic acid hydrochloride] | 500 |
